Legend:
Assay in all cases: relative viability (nuclei count vs DMSO), 5 days (fraction); higher = more cells survive
[1] = test system: NCI-H647
In short: (§1)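 Five library-drug doses in √10 steps were combined with a fixed anchor-drug dose, or a single drug was given alone, by pin tool to lung cancer cell lines in 1536-well plates the day after seeding. Nuclei were stained and counted after 5 days. Relative viability is the nuclei count in treated wells over that in vehicle wells, taken as the median of duplicate plates.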

[2] = test system: NCI-H1792
In short: as §1

[3] = test system: NCI-H1648
In short: as §1

[4] = test system: HCC-15
In short: as §1

[5] = test system: LCLC-97TM1
In short: as §1

[6] = test system: RERF-LC-KJ
In short: as §1

[7] = test system: NCI-H650
In short: as §1

[8] = test system: EPLC-272H
In short: as §1

[9] = test system: NCI-H1395
In short: as §1

[10] = test system: HCC-827
In short: as §1

[11] = test system: HCC-44
In short: as §1

[12] = test system: NCI-H596
In short: as §1

[13] = test system: NCI-H1993
In short: as §1

[14] = test system: ABC-1
In short: as §1

[15] = test system: HCC-78
In short: as §1

[16] = test system: NCI-H522
In short: as §1

[17] = test system: NCI-H358
In short: as §1

[18] = test system: HCC-366
In short: as §1

[19] = test system: SK-MES-1
In short: as §1

[20] = test system: NCI-H2009
In short: as §1

[21] = test system: SW 1573
In short: as §1

[22] = test system: COR-L 105
In short: as §1

[23] = test system: NCI-H661
In short: as §1

Oc1nc(-c2ccc(C(F)(F)F)cc2)nc2c1CSCC2 [XAV939] + NC(=O)Nc1cc(-c2cccc(F)c2)sc1C(=O)N[C@H]1CCCNC1 [AZD7762] (partner 0.2 µM)
relative viability ([1]; first compound 0.08 µM): 0.489 | relative viability ([1]; first compound 0.253 µM): 0.351 | relative viability ([1]; first compound 0.8 µM): 0.319 | relative viability ([1]; first compound 2.53 µM): 0.412 | relative viability ([2]; first compound 0.08 µM): 0.823 | relative viability ([2]; first compound 0.253 µM): 0.595 | relative viability ([2]; first compound 0.8 µM): 0.636 | relative viability ([2]; first compound 2.53 µM): 0.591 | relative viability ([3]; first compound 0.253 µM): 0.501 | relative viability ([3]; first compound 0.8 µM): 0.699 | relative viability ([3]; first compound 2.53 µM): 0.598 | relative viability ([4]; first compound 0.08 µM): 1.31 | relative viability ([4]; first compound 0.253 µM): 1.15 | relative viability ([4]; first compound 0.8 µM): 1.21 | relative viability ([4]; first compound 2.53 µM): 1.08 | relative viability ([5]; first compound 0.08 µM): 0.446 | relative viability ([5]; first compound 0.8 µM): 0.208 | relative viability ([5]; first compound 2.53 µM): 0.172 | relative viability ([6]; first compound 0.08 µM): 0.925 | relative viability ([6]; first compound 0.253 µM): 0.711 | relative viability ([6]; first compound 0.8 µM): 0.848 | relative viability ([6]; first compound 2.53 µM): 0.69 | relative viability ([7]; first compound 0.08 µM): 1.04 | relative viability ([7]; first compound 0.253 µM): 0.809 | relative viability ([7]; first compound 0.8 µM): 1.02 | relative viability ([7]; first compound 2.53 µM): 0.773 | relative viability ([8]; first compound 0.08 µM): 0.229 | relative viability ([8]; first compound 0.253 µM): 0.18 | relative viability ([8]; first compound 0.8 µM): 0.193 | relative viability ([8]; first compound 2.53 µM): 0.0888 | relative viability ([9]; first compound 0.08 µM): 0.389 | relative viability ([9]; first compound 0.253 µM): 0.384 | relative viability ([9]; first compound 0.8 µM): 0.377 | relative viability ([9]; first compound 2.53 µM): 0.366 | relative viability ([10]; first compound 0.08 µM): 0.228 | relative viability ([10]; first compound 0.253 µM): 0.195 | relative viability ([10]; first compound 0.8 µM): 0.213 | relative viability ([10]; first compound 2.53 µM): 0.177 | relative viability ([11]; first compound 0.08 µM): 0.899 | relative viability ([11]; first compound 0.253 µM): 0.89 | relative viability ([11]; first compound 0.8 µM): 0.953 | relative viability ([11]; first compound 2.53 µM): 0.872 | relative viability ([12]; first compound 0.08 µM): 0.918 | relative viability ([12]; first compound 0.253 µM): 0.896 | relative viability ([12]; first compound 0.8 µM): 1.02 | relative viability ([12]; first compound 2.53 µM): 1.02 | relative viability ([13]; first compound 0.08 µM): 0.923 | relative viability ([13]; first compound 0.253 µM): 0.569 | relative viability ([13]; first compound 0.8 µM): 0.62 | relative viability ([13]; first compound 2.53 µM): 0.653 | relative viability ([14]; first compound 0.253 µM): 0.537 | relative viability ([14]; first compound 0.8 µM): 0.768 | relative viability ([14]; first compound 2.53 µM): 0.676 | relative viability ([15]; first compound 0.08 µM): 0.595 | relative viability ([15]; first compound 0.253 µM): 0.514 | relative viability ([15]; first compound 0.8 µM): 0.648 | relative viability ([15]; first compound 2.53 µM): 0.527 | relative viability ([16]; first compound 0.08 µM): 0.914 | relative viability ([16]; first compound 0.253 µM): 0.797 | relative viability ([16]; first compound 0.8 µM): 0.825 | relative viability ([16]; first compound 2.53 µM): 0.819 | relative viability ([17]; first compound 0.08 µM): 0.476 | relative viability ([17]; first compound 0.253 µM): 0.438 | relative viability ([17]; first compound 0.8 µM): 0.344 | relative viability ([17]; first compound 2.53 µM): 0.448 | relative viability ([18]; first compound 0.08 µM): 0.423 | relative viability ([18]; first compound 0.253 µM): 0.211 | relative viability ([18]; first compound 0.8 µM): 0.188 | relative viability ([18]; first compound 2.53 µM): 0.132

C=C1C(=O)O[C@@H](CCCCCCCC)[C@@H]1C(=O)O [C-75] + CC(=O)c1c(C)c2cnc(Nc3ccc(N4CCNCC4)cn3)nc2n(C2CCCC2)c1=O [Palbociclib] (partner 0.5 µM)
relative viability ([19]; first compound 0.08 µM): 0.321 | relative viability ([19]; first compound 0.253 µM): 0.349 | relative viability ([19]; first compound 0.8 µM): 0.309 | relative viability ([19]; first compound 2.53 µM): 0.264 | relative viability ([19]; first compound 8 µM): 0.292 | relative viability ([1]; first compound 0.08 µM): 0.312 | relative viability ([1]; first compound 0.253 µM): 0.384 | relative viability ([1]; first compound 0.8 µM): 0.394 | relative viability ([1]; first compound 2.53 µM): 0.239 | relative viability ([1]; first compound 8 µM): 0.236 | relative viability ([20]; first compound 0.08 µM): 0.24 | relative viability ([20]; first compound 0.253 µM): 0.192 | relative viability ([20]; first compound 0.8 µM): 0.19 | relative viability ([20]; first compound 2.53 µM): 0.171 | relative viability ([20]; first compound 8 µM): 0.216 | relative viability ([2]; first compound 0.08 µM): 0.67 | relative viability ([2]; first compound 0.253 µM): 0.656 | relative viability ([2]; first compound 0.8 µM): 0.686 | relative viability ([2]; first compound 2.53 µM): 0.381 | relative viability ([2]; first compound 8 µM): 0.65 | relative viability ([3]; first compound 0.08 µM): 0.251 | relative viability ([3]; first compound 0.253 µM): 0.398 | relative viability ([3]; first compound 0.8 µM): 0.292 | relative viability ([3]; first compound 8 µM): 0.295 | relative viability ([4]; first compound 0.08 µM): 0.717 | relative viability ([4]; first compound 0.253 µM): 0.699 | relative viability ([4]; first compound 0.8 µM): 0.605 | relative viability ([4]; first compound 2.53 µM): 0.628 | relative viability ([4]; first compound 8 µM): 0.664 | relative viability ([5]; first compound 0.08 µM): 0.225 | relative viability ([5]; first compound 0.253 µM): 0.261 | relative viability ([5]; first compound 0.8 µM): 0.177 | relative viability ([5]; first compound 2.53 µM): 0.18 | relative viability ([5]; first compound 8 µM): 0.239 | relative viability ([6]; first compound 0.08 µM): 1.06 | relative viability ([6]; first compound 0.253 µM): 1.12 | relative viability ([6]; first compound 0.8 µM): 1.07 | relative viability ([6]; first compound 2.53 µM): 1.03 | relative viability ([6]; first compound 8 µM): 1.15 | relative viability ([21]; first compound 0.08 µM): 0.357 | relative viability ([21]; first compound 0.253 µM): 0.394 | relative viability ([21]; first compound 0.8 µM): 0.47 | relative viability ([21]; first compound 2.53 µM): 0.423 | relative viability ([21]; first compound 8 µM): 0.351 | relative viability ([7]; first compound 0.08 µM): 0.31 | relative viability ([7]; first compound 0.253 µM): 0.27 | relative viability ([7]; first compound 0.8 µM): 0.36 | relative viability ([7]; first compound 2.53 µM): 0.283 | relative viability ([7]; first compound 8 µM): 0.39 | relative viability ([8]; first compound 0.08 µM): 0.312 | relative viability ([8]; first compound 0.253 µM): 0.387 | relative viability ([8]; first compound 0.8 µM): 0.333 | relative viability ([8]; first compound 2.53 µM): 0.244 | relative viability ([8]; first compound 8 µM): 0.365 | relative viability ([9]; first compound 0.08 µM): 0.586 | relative viability ([9]; first compound 0.253 µM): 0.584 | relative viability ([9]; first compound 2.53 µM): 0.588 | relative viability ([9]; first compound 8 µM): 0.597 | relative viability ([10]; first compound 0.253 µM): 0.519 | relative viability ([10]; first compound 0.8 µM): 0.5 | relative viability ([10]; first compound 8 µM): 0.494 | relative viability ([11]; first compound 0.08 µM): 0.971 | relative viability ([11]; first compound 0.253 µM): 1.1 | relative viability ([11]; first compound 0.8 µM): 1.02 | relative viability ([11]; first compound 2.53 µM): 0.956 | relative viability ([11]; first compound 8 µM): 0.996 | relative viability ([22]; first compound 0.08 µM): 0.417 | relative viability ([22]; first compound 0.253 µM): 0.41 | relative viability ([22]; first compound 0.8 µM): 0.358 | relative viability ([22]; first compound 2.53 µM): 0.303 | relative viability ([22]; first compound 8 µM): 0.39 | relative viability ([13]; first compound 0.08 µM): 0.618 | relative viability ([13]; first compound 0.253 µM): 0.778 | relative viability ([13]; first compound 0.8 µM): 0.719 | relative viability ([13]; first compound 2.53 µM): 0.553 | relative viability ([13]; first compound 8 µM): 0.642 | relative viability ([14]; first compound 0.08 µM): 0.711 | relative viability ([14]; first compound 0.253 µM): 0.935 | relative viability ([14]; first compound 0.8 µM): 0.559 | relative viability ([14]; first compound 2.53 µM): 0.494 | relative viability ([14]; first compound 8 µM): 0.494 | relative viability ([23]; first compound 0.08 µM): 0.429 | relative viability ([23]; first compound 0.253 µM): 0.41 | relative viability ([23]; first compound 0.8 µM): 0.378 | relative viability ([23]; first compound 2.53 µM): 0.374 | relative viability ([23]; first compound 8 µM): 0.394 | relative viability ([15]; first compound 0.08 µM): 0.476 | relative viability ([15]; first compound 0.253 µM): 0.469 | relative viability ([15]; first compound 0.8 µM): 0.514 | relative viability ([15]; first compound 2.53 µM): 0.459 | relative viability ([15]; first compound 8 µM): 0.461 | relative viability ([16]; first compound 0.08 µM): 1.27 | relative viability ([16]; first compound 0.253 µM): 0.989 | relative viability ([16]; first compound 0.8 µM): 1.06 | relative viability ([16]; first compound 2.53 µM): 0.698 | relative viability ([16]; first compound 8 µM): 0.779 | relative viability ([17]; first compound 0.08 µM): 0.137 | relative viability ([17]; first compound 0.253 µM): 0.135 | relative viability ([17]; first compound 0.8 µM): 0.147 | relative viability ([17]; first compound 8 µM): 0.135 | relative viability ([18]; first compound 0.08 µM): 0.363 | relative viability ([18]; first compound 0.253 µM): 0.477 | relative viability ([18]; first compound 0.8 µM): 0.33 | relative viability ([18]; first compound 2.53 µM): 0.334 | relative viability ([18]; first compound 8 µM): 0.343
